Active and inactive are the calls of the source. The calls are words filed in the database; no cut-off is given here.
Experiments:
[1] = target: T1, N-formyl peptide receptor 2 (Homo sapiens) (UniProt P25090); test: Agonist activity at ALX/FPR2 (unknown origin) expressed in HEK293 cells co-expressing Galphaq assessed as induction of intracellular calcium accumulation at 1 uM by Fluo-4 dye based fluorescence spectrophotometric assay; assay type: functional, cell-based
T1 sequence (whole entry): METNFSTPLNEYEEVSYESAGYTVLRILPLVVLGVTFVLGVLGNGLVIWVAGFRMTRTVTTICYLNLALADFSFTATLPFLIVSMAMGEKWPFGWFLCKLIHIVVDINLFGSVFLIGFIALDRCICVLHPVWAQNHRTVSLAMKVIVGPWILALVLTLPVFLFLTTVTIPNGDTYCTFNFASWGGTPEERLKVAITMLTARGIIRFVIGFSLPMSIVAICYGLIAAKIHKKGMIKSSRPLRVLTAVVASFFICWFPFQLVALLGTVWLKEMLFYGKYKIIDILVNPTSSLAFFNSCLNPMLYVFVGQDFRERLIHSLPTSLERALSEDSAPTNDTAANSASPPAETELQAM

[2] = test system: HEK293; test: Induction of intracellular calcium accumulation in HEK293 cells at 1 uM by Fluo-4 dye based fluorescence spectrophotometric assay; assay type: functional, cell-based; settings: Homo sapiens
[3] = test system: Mus musculus; test: (§1) Anti-inflammatory activity in zymosan-induced C57BL/6J mouse peritonitis model assessed as PMN leukocytes level in peritoneal cavity at 150 ng, ip pretreated for 30 mins followed by zymosan treatment and redosing of test compound at 1 hr post zymosan addition and measured 4 hrs post zymosan addition by flow cytometry (reference value: 100%); assay type: functional
[4] = organism: Homo sapiens; test: Activation of Luc-fused NFkB (unknown origin) expressed in non-stimulated human THP1 cells assessed as relative luminescence unit at 10^-11 M after 24 hrs by luciferase reporter gene assay (reference value: 100%); assay type: cell-based
[5] = test system: THP-1; test: Cytotoxicity against human THP1 cells harboring NFkB-Luc assessed as LDH release at 10'12 M after 24 hrs by spectrophotometric method relative to control; assay type: cell-based; settings: thp-1, 24 h
[6] = target: T2, N-formyl peptide receptor 2 (Homo sapiens, UniProt P25090); test: Agonist activity at ALX/FPR2 in human THP1 cells harboring NF-kB-Luc assessed as inhibition of LPS-induced NFkB signalling activation by measuring reduction in TNFalpha secretion pretreated for 30 mins followed by LPS stimulation for 24 hrs by electrochemiluminescence assay; assay type: cell-based; settings: read-out: IC50
T2 sequence (P25090 whole entry): T1 sequence (whole entry)

[7] = test system: Mus musculus; test: as §1, with “total cell count” for “PMN leukocytes level”; assay type: functional
[8] = organism: Homo sapiens; test: Activation of Luc-fused NFkB (unknown origin) expressed in non-stimulated human THP1 cells assessed as relative luminescence unit at 10^-6 M after 24 hrs by luciferase reporter gene assay (reference value: 100%); assay type: cell-based
[9] = test system: HEK293; test: Induction of intracellular calcium accumulation in HEK293 cells at 0.01 nM to 100 nM by Fluo-4 dye based fluorescence spectrophotometric assay; assay type: functional, cell-based; settings: Homo sapiens
[10] = test system: THP-1; test: Cytotoxicity against human THP1 cells harboring NFkB-Luc assessed as LDH release at 10'11 M after 24 hrs by spectrophotometric method relative to control; assay type: cell-based; settings: thp-1, 24 h
[11] = test system: THP-1; test: Cytotoxicity against human THP1 cells harboring NFkB-Luc assessed as LDH release at 10'6 M after 24 hrs by spectrophotometric method relative to control; assay type: cell-based; settings: thp-1, 24 h
[12] = target: T2, N-formyl peptide receptor 2; test: Agonist activity at ALX/FPR2 in human THP1 cells harboring NF-kB-Luc assessed as inhibition of LPS-induced NFkB signalling activation by measuring reduction in IFNgamma secretion pretreated for 30 mins followed by LPS stimulation for 24 hrs by electrochemiluminescence assay; assay type: cell-based; settings: read-out: IC50
[13] = test system: Mus musculus; test: as §1, with “total cell count” for “PMN leukocytes level”, “50” for “150”; assay type: functional
[14] = organism: Homo sapiens; test: Activation of Luc-fused NFkB (unknown origin) expressed in non-stimulated human THP1 cells assessed as relative luminescence unit at 10^-7 M after 24 hrs by luciferase reporter gene assay (reference value: 100%); assay type: cell-based
[15] = test system: THP-1; test: Cytotoxicity against human THP1 cells harboring NFkB-Luc assessed as LDH release at 10'10 M after 24 hrs by spectrophotometric method relative to control; assay type: cell-based; settings: thp-1, 24 h
[16] = organism: Homo sapiens; test: Activation of Luc-fused NFkB (unknown origin) expressed in non-stimulated human THP1 cells assessed as relative luminescence unit at 10^-10 M after 24 hrs by luciferase reporter gene assay (reference value: 100%); assay type: cell-based
[17] = target: T2, N-formyl peptide receptor 2; test: Agonist activity at ALX/FPR2 in human THP1 cells harboring NF-kB-Luc assessed as inhibition of LPS-induced NFkB signalling activation pretreated for 30 mins followed by LPS stimulation for 24 hrs by luciferase reporter gene assay; assay type: cell-based
[18] = target: T2, N-formyl peptide receptor 2; test: Agonist activity at ALX/FPR2 in human THP1 cells harboring NF-kB-Luc assessed as inhibition of LPS-induced NFkB signalling activation by measuring reduction in IL-6 secretion pretreated for 30 mins followed by LPS stimulation for 24 hrs by electrochemiluminescence assay; assay type: cell-based; settings: read-out: IC50
[19] = test system: THP-1; test: Cytotoxicity against human THP1 cells harboring NFkB-Luc assessed as LDH release at 10'9 M after 24 hrs by spectrophotometric method relative to control; assay type: cell-based; settings: thp-1, 24 h
[20] = target: T2, N-formyl peptide receptor 2; test: Agonist activity at ALX/FPR2 in human THP1 cells harboring NF-kB-Luc assessed as inhibition of LPS-induced NFkB signalling activation by measuring reduction in IL-12p70 secretion pretreated for 30 mins followed by LPS stimulation for 24 hrs by electrochemiluminescence assay; assay type: cell-based; settings: read-out: IC50
[21] = test system: Mus musculus; test: as §1, with “50” for “150”; assay type: functional
[22] = organism: Homo sapiens; test: Activation of Luc-fused NFkB (unknown origin) expressed in non-stimulated human THP1 cells assessed as relative luminescence unit at 10^-8 M after 24 hrs by luciferase reporter gene assay (reference value: 100%); assay type: cell-based
[23] = test system: THP-1; test: Cytotoxicity against human THP1 cells harboring NFkB-Luc assessed as LDH release at 10'7 M after 24 hrs by spectrophotometric method relative to control; assay type: cell-based; settings: thp-1, 24 h
[24] = organism: Homo sapiens; test: Activation of Luc-fused NFkB (unknown origin) expressed in non-stimulated human THP1 cells assessed as relative luminescence unit at 10^-12 M after 24 hrs by luciferase reporter gene assay (reference value: 100%); assay type: cell-based
[25] = test system: THP-1; test: Cytotoxicity against human THP1 cells harboring NFkB-Luc assessed as LDH release at 10'8 M after 24 hrs by spectrophotometric method relative to control; assay type: cell-based; settings: thp-1, 24 h
[26] = organism: Homo sapiens; test: Activation of Luc-fused NFkB (unknown origin) expressed in non-stimulated human THP1 cells assessed as relative luminescence unit at 10^-9 M after 24 hrs by luciferase reporter gene assay (reference value: 100%); assay type: cell-based
[27] = target: T2, N-formyl peptide receptor 2; test: Agonist activity at ALX/FPR2 in human THP1 cells harboring NF-kB-Luc assessed as inhibition of LPS-induced NFkB signalling activation by measuring reduction in IL-1beta secretion pretreated for 30 mins followed by LPS stimulation for 24 hrs by electrochemiluminescence assay; assay type: cell-based
[28] = test system: Mus musculus; test: as §1, with “total cell count” for “PMN leukocytes level”, “25 ug,” for “150 ng,”, “1 hr” for “30 mins”; assay type: functional
[29] = target: T1, N-formyl peptide receptor 2 (Homo sapiens); test: Agonist activity at ALX/FPR2 in human THP1 cells harboring NF-kB-Luc assessed as inhibition of LPS-induced NFkB signalling activation by measuring IFNgamma secretion at 10^-6 M pretreated for 30 mins followed by LPS stimulation for 24 hrs by electrochemiluminescence assay (reference value: 100%); assay type: cell-based; design: scale not given: the % may be the effect or the level left
[30] = test system: Mus musculus; test: as §1, with “25 ug,” for “150 ng,”, “1 hr” for “30 mins”; assay type: functional
[31] = target: T1, N-formyl peptide receptor 2 (Homo sapiens); test: Agonist activity at ALX/FPR2 in human THP1 cells harboring NF-kB-Luc assessed as inhibition of LPS-induced NFkB signalling activation by measuring IL-6 secretion at 10^-6 M pretreated for 30 mins followed by LPS stimulation for 24 hrs by electrochemiluminescence assay (reference value: 100%); assay type: cell-based; design: scale not given: the % may be the effect or the level left
[32] = target: T1, N-formyl peptide receptor 2 (Homo sapiens); test: Agonist activity at ALX/FPR2 in human THP1 cells harboring NF-kB-Luc assessed as inhibition of LPS-induced NFkB signalling activation by measuring IL-12p70 secretion at 10^-6 M pretreated for 30 mins followed by LPS stimulation for 24 hrs by electrochemiluminescence assay (reference value: 100%); assay type: cell-based; design: scale not given: the % may be the effect or the level left
[33] = target: T1, N-formyl peptide receptor 2 (Homo sapiens); test: Agonist activity at ALX/FPR2 in human THP1 cells harboring NF-kB-Luc assessed as inhibition of LPS-induced NFkB signalling activation by measuring TNFalpha secretion at 10^-6 M pretreated for 30 mins followed by LPS stimulation for 24 hrs by electrochemiluminescence assay (reference value: 100%); assay type: cell-based; design: scale not given: the % may be the effect or the level left
[34] = target: T1, N-formyl peptide receptor 2 (Homo sapiens); test: Agonist activity at ALX/FPR2 in human THP1 cells harboring NF-kB-Luc assessed as inhibition of LPS-induced NFkB signalling activation by measuring IL-1beta secretion at 10^-6 M pretreated for 30 mins followed by LPS stimulation for 24 hrs by electrochemiluminescence assay (reference value: 100%); assay type: cell-based; design: scale not given: the % may be the effect or the level left
[35] = target: T1, N-formyl peptide receptor 2 (Homo sapiens); test: Agonist activity at ALX/FPR2 in human THP1 cells harboring NF-kB-Luc assessed as inhibition of LPS-induced NFkB signalling activation by measuring NF-kB activation level at 10^-6 M pretreated for 30 mins followed by LPS stimulation for 24 hrs by luciferase reporter gene assay; assay type: cell-based; design: scale not given: the % may be the effect or the level left

For `Nc1ncnc2c1ncn2[C@@H]1O[C@H](COP(=O)(O)OP(=O)(O)OP(=O)(O)O)[C@@H](O)[C@H]1O`, which Activity [1] is on record?
Its Activity is “Active”.

What about the Activity [2] of the same compound?
The Activity was “Active”.

What does the source list for `CCCCC[C@@H](O)c1c(/C=C/[C@@H](O)[C@@H](O)CCCC(=O)OC)nc(C)n1C`?
Emax [3]: 32.5%; Activity [4]: 2.1%; fold change (FC) [5]: 1; IC50 [6]: 5.6 nM; Emax [7]: 30.4%; Activity [8]: 2%; Activity [9]: inactive; fold change (FC) [10]: 0.9; fold change (FC) [11]: 1.1; IC50 [12]: 4.4 nM; Emax [13]: 57.9%; Activity [14]: 2.5%; fold change (FC) [15]: 0.9; Activity [16]: 2.3%; IC50 [17]: 1 nM; IC50 [18]: 76.6 nM; fold change (FC) [19]: 0.8; IC50 [20]: 5.1 nM; Emax [21]: 51.6%; Activity [22]: 2.1%; fold change (FC) [23]: 0.9; Activity [24]: 2%; fold change (FC) [25]: 0.9; Activity [26]: 2.1%; IC50 [27]: Not Active

How did the Activity [8] turn out when `C[C@@H]1C[C@H]2[C@@H]3CCC4=CC(=O)C=C[C@]4(C)[C@@]3(F)[C@@H](O)C[C@]2(C)[C@@]1(O)C(=O)CO` [DEXAMETHASONE] was run?
Its Activity is 1.6%.

And the Emax [28]?
The Emax was 46.7%.

What about the “fold change (FC)” value [11] of the same compound?
The value was 1.3.

And the Activity [29]?
The Activity was 45.1%.

What about the Emax [30] of the same compound?
Its Emax is 51.5%.

What about the Activity [31] of the same compound?
The Activity was 1.5%.

And the Activity [32]?
Its Activity is 62.6%.

What about the Activity [33] of the same compound?
The Activity was 58.1%.

What about the Activity [34] of the same compound?
Its Activity is 13.6%.

And the Activity [35]?
Its Activity is 53.2%.

— ChEMBL document CHEMBL4382216, “Asymmetric synthesis and biological evaluation of imidazole- and oxazole-containing synthetic lipoxin A4 mimetics (sLXms)” (Eur J Med Chem, 2019)
